In paper PMC12221113, “Deferasirox Derivatives as Inhibitors of Kallikrein‐Related Peptidases Associated to Neurodegenerative Diseases” (Chemmedchem, 2025):
Where two headings read alike, the source gives them in different places.

Legend:
[1] = biological target: T1, KLK8 (Homo sapiens, UniProt O60259); assay: KLK8 fluorogenic enzyme inhibition assay (Boc-VPR-AMC)
T1 sequence (O60259 33-260): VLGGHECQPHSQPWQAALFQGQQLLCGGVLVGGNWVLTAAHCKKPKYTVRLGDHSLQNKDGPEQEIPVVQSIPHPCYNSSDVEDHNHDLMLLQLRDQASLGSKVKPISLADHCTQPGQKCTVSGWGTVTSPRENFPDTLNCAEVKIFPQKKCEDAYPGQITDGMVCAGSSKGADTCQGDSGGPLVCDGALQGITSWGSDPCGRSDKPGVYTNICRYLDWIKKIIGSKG
Procedure: (§1) All enzyme stocks were stored at −20 °C and purchased from R&D Systems as proenzymes (KLK6, KLK8, KLK13) or as mature and active forms (KLK5). Activation of KLK6, KLK8, and KLK13 is performed in optimized buffers. The activation reaction is initiated by Lysyl‐Endopeptidase at 2.5 mU mL^−1 (Wako Bioproducts). The activation reaction is stopped by diluting the enzyme to 0.5 μg mL^−1 in assay buffer (50 mM Tris, 1 M Citrate, 0.05% w/v Brij‐35, pH 8) to obtain an active enzyme stock. KLK1 was purchased from R & D Systems as pro‐KLK1. Activation of KLK1 is performed in 50 mM Tris‐HCl, 10 mM CaCl2, 150 mM NaCl, 0.05% Brij‐35, pH 7.5. The activation reaction is initiated by bacterial thermolysin at 0.4 μg mL^−1 (Sigma‐Aldrich) and stopped by addition of 100 mM EDTA (Sigma‐Aldrich) to obtain an active KLK1 stock at the same concentration of 100 μg mL^−1. […] All enzyme stocks were stored at −20 °C. H‐PFR‐AMC (KLK1), Boc‐VPR‐AMC (KLK5, KLK8, KLK13), Boc‐QAR‐AMC (KLK6, Plasmin), substrates were purchased from Bachem. […] Plasmin (Sigma‐Aldrich) was purchased in mature and active form.
(§2) Compounds were screened on KLKs using a BMG Fluostar microplate reader (black 96‐well microplates). Hit compounds were screened on the selected group of enzymes using optimized concentrations and buffers (KLK1 0.8 nM, KLK4 10 nM, KLK5 0.2 nM; KLK6 1.9 nM; KLK7 6 nM; KLK8 0.2 nM; KLK11 5.2 nM, KLK13 0.47 nM, KLK14 2.5 nM, plasmin 3.3 nM, thrombin 0.1 nM, tissue‐plasminogen activator (tPA) 0.1 nM, matriptase 1 nM, cathepsin L 2 nM) either in absence or prior preincubation in the presence of 100 μM of Fe^3+.
(§3) The proteases are first preincubated for 15 min with each compound (50 and 100 μM) or with DMSO (<2%, negative control) in a total volume of 85 μL of 50 mM Tris buffer, 1 M citrate, 0.05% Brij‐35, pH 7, 37 °C. The reaction is triggered by the appropriate substrate at the optimized concentration in 15 μL of 50 mM Tris buffer, 1 M citrate, 0.05% Brij‐35, pH 8 (H‐PFR‐AMC 100 μM; Boc‐VPR‐AMC 100 μM; Boc‐QAR‐AMC 100 μM; Meo‐Suc‐RPY‐AMC 150 μM, Z‐LR‐AMC 100 μM, Z‐GGR‐AMC 100 μM) and followed for 30 min at 37 °C. […] The release of the AMC fluorescent group is detected using the following wavelengths: λex = 360 nm and λem = 460 nm. The percent inhibition is calculated from Equation (1) where V 0 is the initial rate of the DMSO control, the initial rate in the presence of the inhibitor V i. (1) %inhibition=(1−(vi/v0))×100
(§4) The equation is entered in the Kaleidagraph 4.5 software for curve fitting f([I]) = % Inhibition, where [I] is the inhibitor concentration.
(§5) The mechanism of inhibition was determined by varying substrate and inhibitor concentrations, the type of inhibition and inhibition parameter (Ki or Ki′) are determined by Dixon's plots.

[2] = Calcein transchelation (calcein release) assay; type: physicochemical; conditions: calcein 100 nM, 4 h at room temperature; estimation, assay not fully quantitative; read-out: Apparent affinity (pseudo‐affinity constant Kd for Fe3+)
[3] = biological target: KLK1 (Homo sapiens, UniProt P06870); assay: KLK1 fluorogenic enzyme inhibition assay (H-PFR-AMC)
KLK1, sequence (P06870 25-262): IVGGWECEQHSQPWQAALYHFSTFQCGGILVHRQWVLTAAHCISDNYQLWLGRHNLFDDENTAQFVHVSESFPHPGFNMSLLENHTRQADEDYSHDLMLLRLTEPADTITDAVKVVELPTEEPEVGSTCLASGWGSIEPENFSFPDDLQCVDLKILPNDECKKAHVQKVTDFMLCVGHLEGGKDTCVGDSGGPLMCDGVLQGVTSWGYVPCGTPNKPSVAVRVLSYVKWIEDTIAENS
Procedure: as §1, §2, §3, §4, §5

[4] = UV–vis spectroscopy of Fe3+ chelation and complex stability; type: physicochemical; conditions: activity buffer pH 7.4, 1:1 ratio, t = 0 to 240 min
Procedure: UV–vis analysis of DFX was first performed to monitor the chelation process and the stability of the Fe^3+ complex over time at a 1:1 ratio, typically representing the duration of inhibition assay (30 min to 4 h) (Figure S1, Supporting Information). In these conditions of pH (7.4) and ligand‐to‐iron ratio and according to Steinhauser et al. the main species in solution is assigned to [Fe(DFX)2]^3−.^[ [49] ^] Indeed, we aimed to explore not only the chelation properties but also the impact of the chelated species on enzyme inhibition.
2.c. Chelation properties, iron interactions, and selectivity profiles of selected compounds targeting KLK activity.
Figure S2: Stability of the chelated species as monitored by spectrophotometry. UV/VIS spectra of molecules alone using activity buffer at pH 7.4 (in orange at 500 µM) or in the presence of FeCl3 (ratio of 1:1) at different times (t = 0 in red, 30 min in black, 60 min in blue and 240 min in green). The purple trace corresponds to iron only at 500 µM All data are representative of 2 independent experiments performed in duplicate. […]

[5] = biological target: KLK6 (Homo sapiens, UniProt Q92876); assay: KLK6 fluorogenic enzyme inhibition assay (Boc-QAR-AMC)
Procedure: as §1, §2, §3, §4, §5

[6] = IC50 KLK1, 15 min preincubation at 37 °C, NI = not a hit (not above 50% inhibition at 50 μM)
[7] = IC50 KLK8, 15 min preincubation at 37 °C, NI = not a hit (not above 50% inhibition at 50 μM)

`CCOC(=O)[C@H]1CC[C@H](n2nc(-c3ccccc3O)nc2-c2ccccc2O)CC1` [3fa] showed an IC50 [1] of over 50 µM.

With `O=C(O)[C@H]1CC[C@H](n2nc(-c3ccccc3O)nc2-c2ccccc2O)CC1` [3fb] the IC50 [1] was over 50 µM.

Work on `CCOC(=O)Cn1nc(-c2ccccc2O)nc1-c1ccccc1O` [3g] yielded an IC50 [1] of over 50 µM.

`O=C(O)Cn1nc(-c2ccccc2O)nc1-c1ccccc1O` [3h] showed a Kd [2] of 0.22 ± 0.024 nM and an IC50 [1] of over 50 µM.

For `COC(=O)c1ccc(-n2nc(-c3ccccc3O)nc2-c2ccccc2O)cc1` [3i], the IC50 [1] was over 50 µM.

Compound `COC(=O)CNC(=O)c1ccc(-n2nc(-c3ccccc3O)nc2-c2ccccc2O)cc1` [3ja] has a Kd [2] of 0.175 ± 0.015 nM and an IC50 [1] of over 50 µM.

`O=C(O)CNC(=O)c1ccc(-n2nc(-c3ccccc3O)nc2-c2ccccc2O)cc1` [3jb] showed a Kd [2] of 0.078 ± 0.009 nM and an IC50 [1] of 27 ± 0.6 µM.

With `COC(=O)C(Cc1ccccc1)NC(=O)c1ccc(-n2nc(-c3ccccc3O)nc2-c2ccccc2O)cc1` (stereo not shown) [3ka] the IC50 [1] was over 50 µM.

With `O=C(NC(Cc1ccccc1)C(=O)O)c1ccc(-n2nc(-c3ccccc3O)nc2-c2ccccc2O)cc1` (stereo not shown) [3kb] the IC50 [3, 6] was 16.4 ± 1 µM and the IC50 [1] was 24.8 ± 1.9 µM.

For `COC(=O)C(Cc1c[nH]c2ccccc12)NC(=O)c1ccc(-n2nc(-c3ccccc3O)nc2-c2ccccc2O)cc1` (stereo not shown) [3la], the Kd [2] was 0.13 ± 0.02 nM and the IC50 [1] was over 50 µM.

`COC(=O)C1CCCN1C(=O)c1ccc(-n2nc(-c3ccccc3O)nc2-c2ccccc2O)cc1` (stereo not shown) [3ma] showed a Kd [2] of 0.105 ± 0.022 nM and an IC50 [1] of over 50 µM.

`Oc1ccccc1-c1nc(-c2ccccc2O)n(-c2ccccc2)n1` [3n] gave a Kd [2] of 0.081 ± 0.045 nM and an IC50 [1, 7] of over 50 µM.

For `N#Cc1ccc(-n2nc(-c3ccccc3O)nc2-c2ccccc2O)cc1` [3o], the IC50 [1] was over 50 µM.

Work on `Oc1ccccc1-c1nc(-c2ccccc2O)n(-c2ccc(Br)cc2)n1` [3p] yielded an IC50 [1] of over 50 µM.

`COc1ccc(-n2nc(-c3ccccc3O)nc2-c2ccccc2O)cc1` [3q] gave an IC50 [1, 7] of over 50 µM.

Compound `NS(=O)(=O)c1ccc(-n2nc(-c3ccccc3O)nc2-c2ccccc2O)cc1` [3s] has an IC50 [1] of over 50 µM.

With `O=S(=O)(O)c1ccc(-n2nc(-c3ccccc3O)nc2-c2ccccc2O)cc1` [3t] the Kd [2] was 0.165 ± 0.017 nM, the “UV–vis spectrum in the presence of FeCl3 (iron complex formation)” value (“UV–vis spectrum in the presence of FeCl3” for short) [4] was “appearance of an absorption band with a maximum at 468 nm” and the IC50 [1] was 29.5 ± 1.4 µM.

Work on `NC(=O)c1ccc(-n2nc(-c3ccccc3O)nc2-c2ccccc2O)cc1` [3u] yielded a Kd [2] of 0.093 ± 0.007 nM and an IC50 [1] of 23.7 ± 2.3 µM.

Work on `Oc1ccccc1-c1nc(-c2ccccc2O)n(-c2ccc(-c3nnn[nH]3)cc2)n1` [3v] yielded an IC50 [1] of 44.1 ± 1.7 µM.

In the case of `[Cl][Fe]([Cl])[Cl]` [Fe3+], the IC50 ([3]; read-out: Pseudo-IC50 of Fe3+ on KLK1, Figure S4 A, curve fit y=(100*M0)/(M0+M2)) is reported as 989 µM, the IC50 ([5]; read-out: Pseudo-IC50 of Fe3+ on KLK6, Figure S4 B, curve fit y=(100*M0)/(M0+M2)) is reported as 1320 µM and the IC50 ([1]; read-out: Pseudo-IC50 of Fe3+ on KLK8, Figure S4 C, curve fit y=(100*M0)/(M0+M2)) is reported as 1120 µM.

With `O=C(O)c1ccc(-n2nc(-c3ccccc3)nc2-c2ccccc2O)cc1` [compound 9] the “UV–vis spectrum in the presence of FeCl3” value [4] was “no changes in the absorption spectra”, the IC50 [3, 6] was over 50 µM and the IC50 [5] was over 50 µM. For the same compound, the IC50 [1] was 46.8 ± 0.2 µM.

With `COc1ccc(-c2nc(-c3ccccc3O)n(-c3ccc(C(=O)O)cc3)n2)cc1` [compound 10] the IC50 [3, 6] was over 50 µM, the IC50 [5] was over 50 µM and the IC50 [1] was 33.4 ± 1.1 µM.

With `COc1ccc(-c2nc(-c3ccccc3O)nn2-c2ccc(C(=O)O)cc2)c(O)c1` [compound 13] the Kd [2] was 0.077 ± 0.019 nM, the “UV–vis spectrum in the presence of FeCl3” value [4] was “a similar absorption band is observed” and the IC50 [3, 6] was over 50 µM. It also gave an IC50 [5] of over 50 µM and an IC50 [1] of 24.8 ± 1.3 µM.

With `O=C(O)c1ccc(-n2nc(-c3ccccc3O)nc2-c2ccc(O)cc2O)cc1` [compound 14] the IC50 [3, 6] was over 50 µM, the IC50 [5] was over 50 µM and the IC50 [1] was 38.3 ± 3.5 µM.

`COc1ccc(-c2nc(-c3cccnc3O)n(-c3ccc(C(=O)O)cc3)n2)cc1` [compound 19] showed an IC50 ([3]; read-out: IC50 KLK1, 15 min preincubation at 37 °C, NI = not a hit (not above 50% inhibition at 50 μM)) of over 50 µM.

Work on `COc1ccccc1-c1nc(-c2ccccc2OC)n(-c2ccc(C(=O)O)cc2)n1` [compound 21] yielded an IC50 [3, 6] of over 50 µM, an IC50 [5] of over 50 µM and an IC50 [1] of over 50 µM.

Work on `Oc1ccccc1-c1noc(-c2ccccc2O)n1` [compound 23] yielded an IC50 [1, 7] of over 50 µM.
